US20210177803A1, “NEW PHARMACEUTICAL USE FOR THE TREATMENT OF HEART FAILURE” (Novartis AG, priority 2018, published 2021)

Assays:
[1] = tested on: patients hospitalized for acute HFrEF; assay: PIONEER-HF study: clinical outcomes; assay type: in vivo, human; conditions: 8 weeks; LCZ696 n = 440, enalapril n = 441
Procedure: The study rational and design is described in by Velazquez E J, et al. .in Am.
(§1) The starting dose and all subsequent doses were selected to optimize the highest tolerated dose based on a systolic blood pressure (SBP) algorithm.
(§2) Inclusion Criteria: • Patients ≥18 y of age with the capacity to provide written informed consent. • Currently hospitalized for a primary diagnosis of HF, including symptoms and signs of fluid overload. • Eligible patients will be randomized no earlier than 24 hours and up to ten days after presentation while still hospitalized as long as meet the following definition of stable status: • SBP≥100 mm Hg for the preceding 6 hours prior to randomization; no symptomatic hypotension • No increase (intensification) in i.v. diuretic dose within last 6 hours prior to randomization • No i.v. inotropic drugs for 24 hours prior to randomization • No i.v. vasodilators including nitrates within last 6 hours prior to randomization • Left ventricular EF 40% within the past 6 m (including current hospitalization) using echocardiography, multi gated acquisition scan (MUGA), CT scanning, MRI or ventricular angiography, provided no subsequent study documented an EF of >40% • Elevated NT-proBNP≥1600 pg/mL OR BNP≥400 pg/mL during current hospitalization.

[2] = tested on: patients hospitalized for acute HFrEF
Procedure: as §1, §2

CCOC(=O)[C@H](CCc1ccccc1)N[C@@H](C)C(=O)N1CCC[C@H]1C(=O)O [enalapril, reference compound]
Additional HF drug [1]: 83 (18.8) number (%)
Composite (death, rehospitalization for HF, LVAD implantation, or listing for cardiac transplant) [1]: 74 (16.8) number (%)
Death [1]: 15 (3.4) number (%)
Expanded composite (composite plus unplanned outpatient visits requiring IV diuretics, or increase >50% in diuretic dose) [1]: 275 (62.4) number (%)
HF rehospitalization [1]: 61 (13.8) number (%)
Increase in diuretic dose >50% [1]: 239 (54.2) number (%)
LVAD implantation [1]: 1 (0.2) number (%)
Listing for cardiac transplant [1]: 0 (0.0) number (%)
Unplanned outpatient visits requiring intravenous diuretics [1]: 2 (0.5) number (%)
Hyperkalemia ([2]; 8 weeks): 9.3%
Symptomatic hypotension ([2]; 8 weeks): 9.1%
Worsening renal function ([2]; 8 weeks): 14.7%
Angioedema in patients who identified as black (in words) ([2]; black patients): angioedema were observed
Angioedema events (number in words) ([2]; blinded adjudication): six
Angioedema ([2]; blinded adjudication, 8 weeks): 1.4%
Patients in whom the maximum target dose had been achieved ([2]; by the week 8 study visit): 62%
Study drug prematurely discontinued prior to 8 weeks ([2]; excluding discontinuation due to death): 20.3%
